The source of these data is patent US12440493B2, “Combination therapy for treating cancer comprising substituted piperazines” (Eli Lilly and Company, priority 2020, dated 2025).

“And” between values parts separate entries of the source, which are not always exact repeats. Equal entries are not always repeated.

In experiment [1] the test system is IDH1(R132H) primary human AML cells. The experiment is described as follows: AML clearance in peripheral blood (flow cytometry, % hCD33+hCD45+ of total white cells), human AML PDx models in NSG mice. Particulars: for AML clearance (% hCD33 + hCD45+ (of total white cells)): 2 mg/kg Cytarabine, IP, (QDx5, rest2)X2) 14 days off)x2, each value one animal, 2 mg/kg. It counts as in vivo. The protocol: (§1) Compounds and Formulation. For in vivo studies, each test article is prepared at an appropriate concentration with vehicle. […] Compound A is prepared fresh at the appropriate concentrations with vehicle every 7 days and stored at 4° C. between doses. […] Cytarabine is prepared fresh weekly by dilution with sterile saline from stock solution of Cytarabine (injection 20 mg/mL, (Pfizer injectables')). Azacitidine (Sigma, Lot #MKBR7212) is formulated in sterile water and is prepared fresh daily immediately before dosing. In vivo human AML PDx models. […] Two models are used in the studies: […] As needed, splenocytes from tumor-bearing mice are used to propagate and expand the models, as described. Each test article is prepared as described above at an appropriate concentration with vehicle to give animals the doses tested in this study at a dosing volume of 10 μL/gram body weight. Mice receiving Compound A (PO, QD) are treated at the indicated doses for the duration of the study. The combination agents are dosed as follows: […] Treated mice are assessed in comparison to vehicle treated and naïve (non-tumor bearing) control mice. Body weight is recorded twice per week. […] AML PDx model propagation. […] Spleens are processed and splenocytes isolated as described below. Two hundred μL per subject of the splenocyte prep is injected IV (intravenous, tail vein) into recipient NSG mice. […] Once engraftment is confirmed, the mice are monitored biweekly until ready to be put on study. […] Submandibular blood is collected. Spleen/Splenocyte Processing and Prep. After excision, a spleen is weighed, and […] is placed in a standard sterile 15 mL polypropylene conical tube containing PBS, and placed on ice. […] The spleen is placed in ice cold sterile PBS in a 15 mL collection tube. The spleen is removed from the collection tube and placed in a 100 micron 50 mL conical tube cell strainer (BD Falcon #352360). The spleen is processed by gentle rubbing of the spleen tissue against the surface of the cell strainer with the end of a 5 mL syringe plunger in a circular motion. The surface of the strainer is rinsed with 10 mL room temperature sterile DPBS (HyClone SH30028) 3 times during the process. […] The cell pellet is collected by centrifugation (300×g) and washed three times with 30 mL sterile DPBS. The cells are counted and resuspended in DPBS at the desired implant concentration. Bone Marrow Collection. […] Flow cytometry analysis of human white cells. Submandibular blood samples from in vivo studies are collected. Fluor-conjugated antibody stains are added according to the manufacturer's instructions (anti-human CD33-PE (clone WM53, BD Cat #555450), anti-human CD14-APC (clone MφpP9, BD Cat #340436), anti-human CD15-V450 (clone HI98, BD Cat #561584), anti-human CD117-BV421 (clone YB5.B8, BD Cat #562434), anti-human […]7 (clone ICRF44, BD Cat #557754), anti-human […]7 (clone HI30, BD Cat #557748), and anti-human CD3-FITC (clone SK7, BD Cat #340542)). The samples are incubated for 30 minutes at room temperature, protected from light. After the incubation, 1.5 mL 1×BD Lyse/Fix (37° C., (BD #558049)) is added to each sample and incubated for 12 minutes at room temperature. The tubes are centrifuged at 300×g for 7 minutes. BD Lyse/Fix solution is aspirated and the cell pellet washed with stain/wash buffer 3 times (1 wash step consisted of: pellet resuspended in 3 mL stain/wash buffer, centrifuged at 300×g, aspirated wash). Fixed cells are then resuspended in 300 to 400 μL stain/wash buffer. Samples are analyzed on a Becton Dickinson FACSVerse Flow cytometer (Cat #651155 Serial #Z6511550447) using standard flow cytometry principles and techniques. Samples are analyzed on the same day as they are stained and fixed. Population gating and data analysis of percent population are performed in the FACSuite software on the FACSVerse cytometer. Percent population values from the data analysis are plotted in Graphpad Prism or in JMP13. […]

The test system of the next experiment is 2-HG production. The experiment in a line: Plasma 2-HG inhibition (LC-MS metabolite analysis in plasma of AML PDx model). It counts as in vivo, human.
The test system of experiment [2] is IDH1(R132H) primary human AML cells. The experiment is described as follows: AML cell differentiation in blood (flow cytometry, % hCD33+hCD11b+ of hCD45+ cells), human AML PDx models in NSG mice. The experiment is classed as in vivo. Particulars: for AML cell differentiation (% hCD33 + hCD11b+ (of hCD45+ cells)): 2 mg/kg Cytarabine, IP, (QDx5, rest2)X2) 14 days off)x2, each value one animal, 2 mg/kg. Here is the method:
as §1

Experiment [3] has the same test system. The experiment is described as follows: Bone marrow AML clearance (flow cytometry), human AML PDx models in NSG mice. The experiment is classed as in vivo. Here is the method:
as §1

Where [4] appears, read: 2 mg/kg Cytarabine, IP, (QDx5, rest2)X2) 14 days off)x2, each line one animal.
Where [5] appears, read: 2 mg/kg Cytarabine, IP, (QDx5, rest2)X2) 14 days off) × 2, each line one animal.

On to `Nc1ccn([C@@H]2O[C@H](CO)[C@@H](O)[C@@H]2O)c(=O)n1` [Cytarabine, reference compound], for which the “AML clearance (% hCD33 + hCD45+ (of total white cells))” value was 8.04% and 3.22% and 3.24% and 8.64% and 3.23% and 3.50% and 4.40% in experiment [1] (Treatment day 18); 9.07% and 2.02% and 3.5% and 2.54% and 1.79% and 2.04% in experiment [1] (Treatment day 34); 8.25% and 8.31% and 5.29% and 4.92% and 2.29% and 4.71% and 5.51% in experiment [1] (Treatment day 47); 17.63% and 29.86% and 14.99% and 42.59% and 15.49% and 29.04% and 29.58% in experiment [1] (Treatment day 61); 56.57% and 60.59% and 22.85% and 59.75% and 36.77% and 44.17% in experiment [1] (Treatment day 75); 76.67% and 78.11% and 57.04% and 81.53% and 79.57% and 68.92% in experiment [1] (Treatment day 89). The “AML clearance (% hCD33 + hCD45+ (of total white cells))” value in experiment [1] (Treatment day −3) is 21.32% and 14.8% and 13.68% and 21.94% and 21.7% and 20% and 17.15%. In experiment [1] (day 47, group C: cytarabine (2 mg/kg), vehicle 86%), the “% peripheral blood AML cells (treatment group value)” value is 5.2%. Besides, the “% Inhibition of 2-HG (plasma)” value with 2-HG production (setting [4]) was 78.844% and 68.361% and 88.982% and 79.768% and 71.68% and 76.685% and 68.331%. Also, the “Naive Subtracted 2-HG (plasma)” value with 2-HG production (setting [4]) was 2.348 µM and 3.512 µM and 1.223 µM and 2.246 µM and 3.143 µM and 2.588 µM and 3.515 µM. The “Plasma 2-HG” value with 2-HG production (setting [4]) was 3.256 µM and 4.42 µM and 2.131 µM and 3.154 µM and 4.051 µM and 3.496 µM and 4.423 µM. In addition, the “% plasma 2-HG (treatment group value)” value in the experiment on 2-HG production (group C: cytarabine (2 mg/kg), vehicle 100%) stood at 24%. For the same molecule, the “AML cell differentiation (% hCD33 + hCD11b+ (of hCD45+ cells))” value in experiment [2] (Treatment day 18) was 15.93% and 18.69% and 13.00% and 11.66% and 14.07% and 10.70% and 11.81%; in experiment [2] (Treatment day 34), 37.13% and 33.07% and 31.02% and 31.17% and 33.03% and 37.1%; in experiment [2] (Treatment day 47) it was 8.3% and 7.84% and 7.69% and 5.82% and 16.79% and 5.09% and 7.21%; in experiment [2] (Treatment day 61), 9.5% and 8.65% and 9.29% and 6.94% and 10.6% and 7.78% and 8.46%; in experiment [2] (Treatment day 75), 5.65% and 7.65% and 11.09% and 11.48% and 10% and 10.46%; in experiment [2] (Treatment day 89), 8.75% and 10.17% and 8.87% and 18.02% and 12.49% and 11.08%. Further, in experiment [2] (Treatment day −3), the “AML cell differentiation (% hCD33 + hCD11b+ (of hCD45+ cells))” value was 16.46% and 20.43% and 14.95% and 8.62% and 13.39% and 10.09% and 12.17%. Also, in experiment [2] (day 47, group C: cytarabine (2 mg/kg), vehicle 10%), the “% AML cell differentiation (treatment group value)” value turned out to be 8%. Besides, the “Bone Marrow AML Clearance: % hCD33 + hCD45+ (% of white cells)” value in experiment [3] (setting [5]) is 64.38% and 75.48% and 39.66% and 80.32%. In addition, the “Bone Marrow AML Clearance: % hCD45+ (% of white cells)” value in experiment [3] (setting [5]) is 71.88% and 78.06% and 44.54% and 80.75%. In addition, the “% human AML cells in bone marrow (of white cells; lower = more clearance)” value in experiment [3] (group C: cytarabine (2 mg/kg), vehicle 94%) turned out to be 63%.
